Data set [1] in a line: Solubility of the single peptides in water and DMSO. It counts as physicochemical. The note with it: single peptide. On the procedure:
In the scope of the present invention peptides are characterised by their solubility. Peptides which are soluble in an aqueous solution less than 100 μg/ml are considered hydrophobic. On the other hand hydrophilic peptides dissolve in a buffered aqueous solution in concentration over 100 μg/ml. Hydrophilic peptides may further be divided into cationic (>20% basic amino acids including lysine, arginine, histidine), anionic (>20% acidic amino acids including aspartic acid, glutamic acid) and hydroxyl-rich peptides (>30% —OH containing amino acids like serine, threonine, tyrosine).
The peptide mixture contains 6 peptides (see table 1), which show a broad range of solubility. […] Peptides 1236, 1240, and 1242 can sequentially be dissolved in water, provided that the final pH is adjusted to pH 8.5. At lower pH a gel is formed presumably due to charge interactions and/or hydrogen bond formation. This gel can not be sterile filtered as it blocks the filter immediately. However, upon addition of poly-L-arginine (pR) to the aqueous solution of the three peptides a precipitate forms that makes sterile filtration of the solution impossible.
As with the formulation of example 1, for the manufacturing of a suspension formulation it is necessary first to dissolve peptides 83 and 84 in an aqueous buffer solution and peptides 87, 89, and 1426 in DMSO. After sterile filtration the solutions can be combined to form the final suspension.

The conditions of data set [2]: suspension formulation stored at room temperature (Figure C).

The source of these data is patent US20080145383A1, “Method for Solubilizing Peptide Mixtures” (priority 2004, published 2008).

Peptide text beside a SMILES is read from it.

Consider `CC[C@H](C)[C@H](NC(=O)[C@H](CCC(N)=O)NC(=O)CNC(=O)CNC(=O)CNC(=O)[C@@H]1CCCN1C(=O)[C@H](Cc1ccccc1)NC(=O)[C@@H](N)CCCCN)C(=O)N[C@H](C(=O)NCC(=O)NCC(=O)N[C@H](C(=O)N[C@@H](Cc1ccc(O)cc1)C(=O)N[C@@H](CC(C)C)C(=O)N[C@@H](CC(C)C)C(=O)N1CCC[C@H]1C(=O)N[C@@H](CCCNC(=N)N)C(=O)N[C@@H](CCCNC(=N)N)C(=O)NCC(=O)N1CCC[C@H]1C(=O)N[C@@H](CCCNC(=N)N)C(=O)N[C@@H](CC(C)C)C(=O)O)C(C)C)C(C)C` [Peptide 83] (H-KFPGGGQIVGGVYLLPRRGPRL-OH; N-terminus and C-terminus assumed), for which, in data set [1], the “solubility in DMSO” value is “soluble” and the solubility in water entry is listed as “soluble”. Take `CC(C)C[C@H](NC(=O)[C@@H](NC(=O)[C@H](CC(C)C)NC(=O)[C@@H](NC(=O)[C@H](CCCCN)NC(=O)[C@H](Cc1ccc(O)cc1)NC(=O)CN)C(C)C)C(C)C)C(=O)N[C@@H](CC(N)=O)C(=O)N1CCC[C@H]1C(=O)N[C@@H](CO)C(=O)N[C@H](C(=O)N[C@@H](C)C(=O)N[C@@H](C)C(=O)N[C@H](C(=O)O)[C@@H](C)O)C(C)C` [Peptide 84]: in data set [1], the “solubility in DMSO” value is recorded as “soluble” and the solubility in water entry was “soluble”. Further, in data set [1] (listed as Ipep 84), the solubility in water result is “water soluble”. For `CC[C@H](C)[C@H](NC(=O)[C@H](Cc1ccc(O)cc1)NC(=O)CNC(=O)[C@H](CCSC)NC(=O)[C@H](CC(C)C)NC(=O)[C@@H](N)CC(=O)O)C(=O)N1CCC[C@H]1C(=O)N[C@@H](C)C(=O)N[C@H](C(=O)O)C(C)C` [Peptide 87] (H-DLMGYIPAV-OH; N-terminus and C-terminus assumed), in data set [1], the “solubility in DMSO” value was “dissolve easily in DMSO” and the solubility in water entry is reported as “poorly water soluble”.

For `CC[C@H](C)[C@H](N)C(=O)N[C@@H](CC(=O)O)C(=O)N[C@@H](CCC(=O)O)C(=O)N[C@@H](CC(C)C)C(=O)N[C@@H](CCCCN)C(=O)N[C@H](C(=O)N[C@@H](CC(N)=O)C(=O)N[C@@H](CO)C(=O)N[C@@H](CO)C(=O)N[C@@H](CC(C)C)C(=O)N[C@@H](CC(C)C)C(=O)N[C@H](C(=O)N[C@@H](CO)C(=O)N[C@H](C(=O)N[C@@H](CC(C)C)C(=O)N[C@H](C(=O)N[C@@H](Cc1ccc(O)cc1)C(=O)N[C@@H](Cc1c[nH]cn1)C(=O)N[C@H](C(=O)N[C@H](C(=O)O)C(C)C)C(C)C)[C@@H](C)O)[C@@H](C)CC)[C@@H](C)O)[C@@H](C)O` [Peptide 1235] (H-IDELKTNSSLLTSILTYHVV-OH; N-terminus and C-terminus assumed), in data set [1], the “solubility in DMSO” value is “only dissolve in DMSO” and the solubility in water result is “hydrophobic”. In the same order, the values of `CC[C@H](C)[C@H](NC(=O)[C@H](CC(N)=O)NC(=O)[C@@H](NC(=O)[C@@H](NC(=O)CNC(=O)[C@H](C)NC(=O)[C@H](C)NC(=O)[C@H](C)NC(=O)[C@H](CCC(N)=O)NC(=O)[C@H](C)NC(=O)[C@@H](NC(=O)CNC(=O)[C@H](C)NC(=O)CNC(=O)[C@H](CO)NC(=O)CNC(=O)[C@@H](N)[C@@H](C)O)[C@@H](C)CC)[C@@H](C)O)C(C)C)C(=O)O` [Peptide 1236] are “does not dissolve in DMSO” and “slowly dissolves in water”. In the same order, the values of `CC[C@H](C)[C@H](NC(=O)[C@@H](NC(=O)[C@H](C)NC(=O)[C@@H](NC(=O)[C@H](CO)NC(=O)[C@H](CO)NC(=O)[C@H](CCCCN)NC(=O)[C@H](CC(C)C)NC(=O)[C@H](CC(=O)O)NC(=O)[C@H](CO)NC(=O)[C@@H](N)C(C)C)[C@@H](C)O)C(C)C)C(=O)N1CCC[C@H]1C(=O)NCC(=O)N[C@@H](Cc1ccc(O)cc1)C(=O)N1CCC[C@H]1C(=O)N[C@H](C(=O)N[C@@H](C)C(=O)NCC(=O)N[C@@H](CCC(N)=O)C(=O)N[C@H](C(=O)O)C(C)C)C(C)C` [Peptide 1240] (H-VSDLKSSTAVIPGYPVAGQV-OH; N-terminus and C-terminus assumed) are “can also be dissolved in DMSO” and “water soluble”. For the molecule `CC(C)C[C@H](NC(=O)[C@H](Cc1ccccc1)NC(=O)[C@@H](N)CC(N)=O)C(=O)N[C@@H](CC(C)C)C(=O)N1CCC[C@H]1C(=O)N[C@@H](CC(=O)O)C(=O)N[C@@H](C)C(=O)N[C@@H](CCC(N)=O)C(=O)N[C@@H](C)C(=O)N[C@@H](C)C(=O)N[C@@H](C)C(=O)N[C@@H](C)C(=O)NCC(=O)N[C@@H](Cc1ccccc1)C(=O)N[C@@H](C)C(=O)N[C@@H](CO)C(=O)N[C@@H](CCCCN)C(=O)O` [Peptide 1241] (H-NFLLPDAQAAAAGFASK-OH; N-terminus and C-terminus assumed), in data set [1], the “solubility in DMSO” value is recorded as “only dissolve in DMSO” and the solubility in water result was “hydrophobic”. For `CC[C@H](C)[C@H](NC(=O)[C@H](CC(N)=O)NC(=O)[C@@H](NC(=O)[C@H](CC(N)=O)NC(=O)[C@@H](N)Cc1ccc(O)cc1)[C@@H](C)CC)C(=O)N[C@@H](CO)C(=O)N[C@@H](CC(C)C)C(=O)N1CCC[C@H]1C(=O)N[C@@H](CO)C(=O)N[C@@H](Cc1ccc(O)cc1)C(=O)N[C@@H](Cc1ccc(O)cc1)C(=O)N1CCC[C@H]1C(=O)N[C@@H](CC(=O)O)C(=O)N[C@@H](CCC(N)=O)C(=O)N[C@@H](CCCCN)C(=O)N[C@@H](CO)C(=O)N[C@@H](CC(C)C)C(=O)N[C@@H](CCC(=O)O)C(=O)N[C@@H](CC(N)=O)C(=O)N[C@@H](Cc1ccc(O)cc1)C(=O)O` [Peptide 1242] (H-YNINISLPSYYPDQKSLENY-OH; N-terminus and C-terminus assumed), in that order: “can also be dissolved in DMSO” and “water soluble”.

As to `CC[C@H](C)[C@H](NC(=O)CNC(=O)[C@H](CO)NC(=O)[C@@H](NC(=O)[C@H](Cc1ccccc1)NC(=O)[C@H](CC(N)=O)NC(=O)[C@H](Cc1c[nH]c2ccccc12)NC(=O)[C@H](CCSC)NC(=O)[C@@H](N)Cc1c[nH]cn1)[C@@H](C)CC)C(=O)N[C@@H](CCC(N)=O)C(=O)N[C@@H](Cc1ccc(O)cc1)C(=O)N[C@@H](CC(C)C)C(=O)N[C@@H](C)C(=O)NCC(=O)N[C@@H](CC(C)C)C(=O)N[C@@H](CO)C(=O)N[C@H](C(=O)N[C@@H](CC(C)C)C(=O)N1CCC[C@H]1C(=O)NCC(=O)N[C@@H](CC(N)=O)C(=O)N1CCC[C@H]1C(=O)N[C@@H](C)C(=O)O)[C@@H](C)O` [Peptide 1426] (H-HMWNFISGIQYLAGLSTLPGNPA-OH; N-terminus and C-terminus assumed), the “solubility in DMSO” value in data set [1] is reported as “only soluble in DMSO”. Consider `CC[C@H](C)[C@H](N)C(=O)NCC(=O)N[C@@H](CC(C)C)C(=O)NCC(=O)N[C@@H](CCCCN)C(=O)N[C@H](C(=O)N[C@@H](CC(C)C)C(=O)N[C@H](C(=O)N[C@@H](CC(=O)O)C(=O)N[C@H](C(=O)N[C@@H](CC(C)C)C(=O)N[C@@H](C)C(=O)NCC(=O)N[C@@H](Cc1ccc(O)cc1)C(=O)NCC(=O)N[C@@H](C)C(=O)NCC(=O)N[C@H](C(=O)N[C@@H](C)C(=O)NCC(=O)N[C@@H](C)C(=O)N[C@@H](CC(C)C)C(=O)N[C@H](C(=O)N[C@@H](C)C(=O)N[C@@H](Cc1ccccc1)C(=O)N[C@@H](CCCCN)C(=O)O)C(C)C)C(C)C)[C@@H](C)CC)C(C)C)C(C)C` [Peptide 1798] (H-IGLGKVLVDILAGYGAGVAGALVAFK-OH; N-terminus and C-terminus assumed), for which the solubility in water result in data set [1] was “water soluble on its own”. Still for that read-out and setting: then `CC[C@H](C)[C@H](NC(=O)[C@H](CCC(N)=O)NC(=O)CNC(=O)CNC(=O)CNC(=O)[C@@H]1CCCN1C(=O)[C@H](Cc1ccccc1)NC(=O)[C@@H](N)CCCCN)C(=O)N[C@H](C(=O)NCC(=O)NCC(=O)N[C@H](C(=O)N[C@@H](Cc1ccc(O)cc1)C(=O)N[C@@H](CC(C)C)C(=O)N[C@@H](CC(C)C)C(=O)N1CCC[C@H]1C(=O)N[C@@H](CCCNC(=N)N)C(=O)N[C@@H](CCCNC(=N)N)C(=O)NCC(=O)N1CCC[C@H]1C(=O)N[C@@H](CCCNC(=N)N)C(=O)N[C@@H](CC(C)C)C(=O)NCC(=O)N[C@H](C(=O)N[C@@H](CCCNC(=N)N)C(=O)N[C@@H](C)C(=O)N[C@H](C(=O)N[C@@H](CCCNC(=N)N)C(=O)N[C@@H](CCCCN)C(=O)O)[C@@H](C)O)C(C)C)C(C)C)C(C)C` [Peptide 1835] (H-KFPGGGQIVGGVYLLPRRGPRLGVRATRK-OH; N-terminus and C-terminus assumed), with “water soluble”. For `CC[C@H](C)[C@H](NC(=O)[C@@H](NC(=O)[C@H](Cc1ccccc1)NC(=O)[C@H](CC(N)=O)NC(=O)[C@@H](NC(=O)[C@@H](NC(=O)[C@H](CS)NC(=O)[C@@H]1CCCN1C(=O)[C@H](Cc1ccc(O)cc1)NC(=O)[C@H](Cc1c[nH]cn1)NC(=O)[C@H](Cc1c[nH]c2ccccc12)NC(=O)[C@H](CC(C)C)NC(=O)[C@H](CCCNC(=N)N)NC(=O)[C@H](Cc1ccc(O)cc1)NC(=O)[C@@H]1CCCN1C(=O)[C@H](Cc1ccc(O)cc1)NC(=O)[C@@H](N)CC(=O)O)[C@@H](C)O)C(C)C)[C@@H](C)O)C(=O)N[C@@H](Cc1ccccc1)C(=O)N[C@@H](CCCCN)C(=O)N[C@H](C(=O)O)C(C)C` [Peptide 1846] (H-DYPYRLWHYPCTVNFTIFKV-OH; N-terminus and C-terminus assumed), the degradation entry in data set [2] is listed as “oxidation of Ipep 1846 to its dimer”.
